The target of data set [1] is Amyloid-beta precursor protein (Homo sapiens) (UniProt P05067). Description: Binding affinity to beta amyloid plaques in normal human brain at 444 kBq/50 uL after 1 hr by autoradiography. The note with it: tested as the 18F-labelled form.
Data set [2] can be described thus: Displacement of [125I]IMPY from amyloid beta (1 to 42) after 3 hrs by gamma counting.
Data set [3] has as its system Brain. The experiment in a line: Ratio of drug level in brain after 2 mins to brain after 60 mins in ddY mouse […] at 185 to 370 kBq, iv. The format is ADME, organism-based. The note with it: in vivo.
In data set [4] the test system is Blood. The experiment in a line: Biodistribution in ddY mouse blood at 185 to 370 kBq, iv after 60 mins by gamma counting. The format is ADME, organism-based. The note with it: in vivo, 1 h.
Data set [5] concerns Brain. Description: Biodistribution in ddY mouse brain at 185 to 370 kBq, iv after 10 mins by gamma counting. The format is ADME, organism-based. The note with it: in vivo.
For data set [6], the system named is Bone. Description: Biodistribution in ddY mouse bone at 185 to 370 kBq, iv after 2 mins by gamma counting. It counts as ADME, organism-based, Bone element. The following applies: in vivo.
Data set [7] has as its system Brain. The experiment in a line: Biodistribution in Tg2576 transgenic mouse brain at 11.1 MBq, iv after 30 mins by autoradiography. The following applies: in vivo, 0.5 h. The format is ADME, organism-based.
In data set [8] the test system is Brain. The experiment in a line: Biodistribution in wild type mouse brain at 11.1 MBq, iv after 30 mins by autoradiography. It counts as ADME, organism-based. The following applies: in vivo, 0.5 h.
Data set [9] concerns Brain. Description: Biodistribution in ddY mouse brain at 185 to 370 kBq, iv after 60 mins by gamma counting. It counts as ADME, organism-based. The following applies: in vivo, 1 h.
The test system of data set [10] is Bone. Description: Biodistribution in ddY mouse bone at 185 to 370 kBq, iv after 10 mins by gamma counting. It counts as ADME, organism-based, Bone element. The following applies: in vivo.
The test system of data set [11] is Brain. Description: Biodistribution in ddY mouse brain at 185 to 370 kBq, iv after 30 mins by gamma counting. The format is ADME, organism-based. The following applies: in vivo, 0.5 h.
For data set [12], the system named is Brain. The experiment in a line: Biodistribution in ddY mouse brain at 185 to 370 kBq, iv after 2 mins by gamma counting. The note with it: in vivo. It counts as ADME, organism-based.
The subject of data set [13] is Blood. The experiment in a line: Biodistribution in ddY mouse blood at 185 to 370 kBq, iv after 30 mins by gamma counting. The format is ADME, organism-based. The following applies: in vivo, 0.5 h.
In data set [14] the test system is Bone. The experiment in a line: Biodistribution in ddY mouse bone at 185 to 370 kBq, iv after 30 mins by gamma counting. It counts as ADME, organism-based, Bone element. The following applies: in vivo, 0.5 h.
The subject of data set [15] is Blood. The experiment in a line: Biodistribution in ddY mouse blood at 185 to 370 kBq, iv after 10 mins by gamma counting. It counts as ADME, organism-based. The note with it: in vivo.
In data set [16] the test system is Bone. Description: Biodistribution in ddY mouse bone at 185 to 370 kBq, iv after 60 mins by gamma counting. The format is ADME, organism-based, Bone element. The following applies: in vivo, 1 h.
Data set [17] concerns Blood. The experiment in a line: Biodistribution in ddY mouse blood at 185 to 370 kBq, iv after 2 mins by gamma counting. The format is ADME, organism-based. The following applies: in vivo.

The source made the active and inactive calls. The rule behind the calls is not given here.

Chain of Amyloid-beta precursor protein (Homo sapiens) (P05067 whole entry): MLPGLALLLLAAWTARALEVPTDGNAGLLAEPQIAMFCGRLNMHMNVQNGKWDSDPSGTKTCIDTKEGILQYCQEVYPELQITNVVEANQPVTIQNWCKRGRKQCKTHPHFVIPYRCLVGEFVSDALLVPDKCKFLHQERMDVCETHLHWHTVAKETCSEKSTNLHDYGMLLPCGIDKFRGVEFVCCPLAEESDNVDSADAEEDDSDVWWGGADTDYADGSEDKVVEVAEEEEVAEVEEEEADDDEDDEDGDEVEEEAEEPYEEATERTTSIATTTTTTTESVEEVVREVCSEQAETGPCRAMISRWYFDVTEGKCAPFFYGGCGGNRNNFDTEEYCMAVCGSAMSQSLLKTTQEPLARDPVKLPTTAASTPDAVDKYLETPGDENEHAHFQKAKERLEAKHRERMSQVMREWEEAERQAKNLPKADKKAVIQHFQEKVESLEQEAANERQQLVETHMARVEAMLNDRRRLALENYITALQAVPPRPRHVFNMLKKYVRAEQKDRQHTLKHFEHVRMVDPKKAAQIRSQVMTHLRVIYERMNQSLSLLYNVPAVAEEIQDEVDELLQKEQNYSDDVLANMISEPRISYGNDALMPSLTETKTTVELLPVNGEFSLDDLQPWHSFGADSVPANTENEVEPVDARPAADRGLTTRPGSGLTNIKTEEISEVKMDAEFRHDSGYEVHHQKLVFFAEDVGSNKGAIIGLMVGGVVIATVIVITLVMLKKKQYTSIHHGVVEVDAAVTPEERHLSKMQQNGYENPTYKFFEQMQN

`CNc1ccc(-c2cc3cc(OCCOCCOCCF)ccc3o2)cc1`: the result in [1] was inactive. The compound further had a Ki in [2] of 3.85 nM.

Compound `CNc1ccc(-c2nc3ccc(O)cc3s2)cc1` [PITTSBURGH COMPOUND B UNLABELLED] had a Ki in [2] of 9 nM.

In turn, `CN(C)c1ccc(-c2cc3cc(OCCOCCOCCF)ccc3o2)cc1` yielded a Ki in [2] of 2 nM.

With `CNc1ccc(/C=C/c2ccc(OCCOCCOCC[18F])nc2)cc1` [FLORBETAPIR F 18], the Ratio in data set [3] was 3.8.

`CNc1ccc(-c2cc3cc(OCCOCCOCC[18F])ccc3o2)cc1`: the Drug uptake in data set [4] is 7.33 % ID/g; in data set [5], 6.43 % ID/g; in data set [6] it was 1.57 % ID/g; in [7] it was “Active”; in data set [8], “Not Active”; in [9] it was 3.87 % ID/g. For the same compound, the Drug uptake in data set [10] was found to be 1.98 % ID/g; in data set [11], 4.26 % ID/g; in [12], 8.18 % ID/g; in data set [13] it was 5.33 % ID/g; in [14] it was 2.07 % ID/g; in data set [15], 4.17 % ID/g. For the same compound, the results for the Drug uptake in [16] and in data set [17] were 3.3 % ID/g and 4.1 % ID/g, respectively. Further, in [3], the Ratio is 2.11.

In the case of `CN(C)c1ccc(-c2cc3cc(OCCOCCOCC[18F])ccc3o2)cn1`, in [3], the Ratio amounted to 2.11.

Values taken from ChEMBL document CHEMBL1772971, “Novel 18F-labeled benzofuran derivatives with improved properties for positron emission tomography (PET) imaging of β-amyloid plaques in Alzheimer's brains” (J Med Chem, 2011).
